These results are taken from ChEMBL document CHEMBL1134095, “Biaryl ether retrohydroxamates as potent, long-lived, orally bioavailable MMP inhibitors” (Bioorg Med Chem Lett, 2001).

SMILES strings stand for the structures.

The target in one data set is T1, Interstitial collagenase (Homo sapiens, UniProt P03956).
T1 sequence (P03956 whole entry): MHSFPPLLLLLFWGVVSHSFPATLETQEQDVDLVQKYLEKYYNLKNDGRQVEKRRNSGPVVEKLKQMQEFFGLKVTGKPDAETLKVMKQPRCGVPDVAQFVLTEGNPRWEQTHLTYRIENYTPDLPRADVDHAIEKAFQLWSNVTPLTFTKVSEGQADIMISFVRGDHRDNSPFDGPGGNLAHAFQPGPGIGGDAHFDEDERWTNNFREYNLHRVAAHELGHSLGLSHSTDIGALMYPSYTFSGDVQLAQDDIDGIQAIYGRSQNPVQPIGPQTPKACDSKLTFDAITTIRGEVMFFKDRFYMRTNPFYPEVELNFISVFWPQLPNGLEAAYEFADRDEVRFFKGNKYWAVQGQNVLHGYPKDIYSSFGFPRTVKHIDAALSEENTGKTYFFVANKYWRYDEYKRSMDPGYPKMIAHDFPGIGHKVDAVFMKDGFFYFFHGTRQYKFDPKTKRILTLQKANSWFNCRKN
As to the kind of experiment: In vitro inhibition of Matrix metalloprotease-1.

The target of a further data set is Stromelysin-1 (Homo sapiens, UniProt P08254). Briefly: In vitro inhibition of Matrix metalloprotease-3.
Sequence of Stromelysin-1 (P08254 whole entry): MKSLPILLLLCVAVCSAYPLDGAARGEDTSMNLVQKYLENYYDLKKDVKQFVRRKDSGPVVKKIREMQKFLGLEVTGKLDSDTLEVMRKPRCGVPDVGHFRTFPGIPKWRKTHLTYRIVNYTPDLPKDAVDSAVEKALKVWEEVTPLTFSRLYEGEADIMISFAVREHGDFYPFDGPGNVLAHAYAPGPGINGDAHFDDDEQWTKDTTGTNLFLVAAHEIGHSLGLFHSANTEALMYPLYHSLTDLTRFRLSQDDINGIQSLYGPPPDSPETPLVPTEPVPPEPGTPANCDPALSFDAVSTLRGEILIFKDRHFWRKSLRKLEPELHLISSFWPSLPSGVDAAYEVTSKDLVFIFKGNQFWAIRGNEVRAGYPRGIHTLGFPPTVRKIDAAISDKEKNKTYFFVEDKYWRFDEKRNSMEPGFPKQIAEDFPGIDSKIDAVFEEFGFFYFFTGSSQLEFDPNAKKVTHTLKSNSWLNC
Data set [1] is described as follows: Half life after iv administration in cynomolgus monkey. Format: ADME, organism-based, Macaca fascicularis. To be noted: in vivo.
A short description of data set [2]: Oral bioavailability in cynomolgus monkey. It is filed as ADME, organism-based, Macaca fascicularis. To be noted: in vivo.
A short description of data set [3]: Area under curve determined after intravenous administration at a dose of 3 mg/kg in cynomolgus monkey. It is filed as ADME, organism-based, Macaca fascicularis. Also noted: dose 3 mg/kg, route intravenous. To be noted: in vivo.
A short description of data set [4]: Half life determined after intravenous administration at a dose of 3 mg/kg in cynomolgus monkey. Format: ADME, organism-based, Macaca fascicularis. Also noted: dose 3 mg/kg, route intravenous. The following applies: in vivo.
Data set [5] can be described thus: Area under curve determined after peroral administration at a dose of 3 mg/kg in cynomolgus monkey. Also noted: dose 3 mg/kg, route oral. To be noted: in vivo, po. Format: ADME, organism-based, Macaca fascicularis.
For data set [6], the target named is 72 kDa type IV collagenase (Homo sapiens, UniProt P08253). Briefly: In vitro inhibition of Matrix metalloprotease-2.
Sequence of 72 kDa type IV collagenase (P08253 whole entry): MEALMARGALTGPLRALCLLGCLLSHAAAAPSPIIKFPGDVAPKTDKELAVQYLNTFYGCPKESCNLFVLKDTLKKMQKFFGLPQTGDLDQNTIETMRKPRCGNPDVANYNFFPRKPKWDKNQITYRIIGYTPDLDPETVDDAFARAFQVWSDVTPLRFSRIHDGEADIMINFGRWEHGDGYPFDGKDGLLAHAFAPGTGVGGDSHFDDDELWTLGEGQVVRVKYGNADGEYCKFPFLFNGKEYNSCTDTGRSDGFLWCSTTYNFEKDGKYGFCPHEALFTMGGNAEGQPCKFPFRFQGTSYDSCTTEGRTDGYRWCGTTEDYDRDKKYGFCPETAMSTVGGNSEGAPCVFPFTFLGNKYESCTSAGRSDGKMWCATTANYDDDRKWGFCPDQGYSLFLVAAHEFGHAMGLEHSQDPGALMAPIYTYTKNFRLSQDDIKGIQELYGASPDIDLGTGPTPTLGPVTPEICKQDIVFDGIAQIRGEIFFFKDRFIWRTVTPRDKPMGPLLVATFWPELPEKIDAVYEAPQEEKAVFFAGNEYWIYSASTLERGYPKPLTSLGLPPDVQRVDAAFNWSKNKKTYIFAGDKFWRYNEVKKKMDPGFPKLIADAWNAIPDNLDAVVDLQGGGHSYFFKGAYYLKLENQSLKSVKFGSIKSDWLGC
Data set [7] can be described thus: Bioavailability determined after oral administration in marmoset. It is filed as ADME, organism-based. The following applies: callitrichinae sp., in vivo.
The nature of data set [8]: Area under curve determined after peroral administration at a dose of 10 mg/kg in cynomolgus monkey. It is filed as ADME, organism-based, Macaca fascicularis. Set-up: dose 10 mg/kg, route oral. The following applies: in vivo, po.
A short description of data set [9]: Half life determined in rat by intravenous administration. Format: ADME, organism-based. To be noted: in vivo.
A short description of data set [10]: Oral Bioavailability in rat. It is filed as ADME, organism-based. To be noted: in vivo.

On to `N#Cc1ccc(-c2ccc(OCC(Cc3ccc(F)cc3)N(O)C=O)cc2)cc1` (stereo unspecified), for which the IC50 turned out to be 14000 nM on Interstitial collagenase and 180 nM at Stromelysin-1. The compound further had a half-life in [1] of under 1 h.
With `CC1(C)NC(=O)N(CCC(COc2ccc(-c3ccc(C#N)cc3)cc2)N(O)C=O)C1=O` (stereo unspecified), the bioavailability in [2] was 6%. The AUC in data set [3] worked out at 47.5 uM hr l-1; in [5], 2.4 uM hr l-1. This compound gave a half-life in data set [4] of 12.7 h. For the same compound, the IC50 was 14000 nM against Interstitial collagenase, 35 nM at Stromelysin-1 and 6900 nM in data set [6].
As for `N#Cc1ccc(-c2ccc(OCCC(=O)O)cc2)cc1`, the IC50 on Stromelysin-1 was over 10 nM; in data set [6], 8000 nM.
Regarding `CC1(C)CC(=O)N(CC(COc2ccc(-c3ccc(C#N)cc3)cc2)N(O)C=O)C(=O)C1` (stereo unspecified), the results for the IC50 (on Interstitial collagenase; on Stromelysin-1; in data set [6]) were 360 nM, 37 nM and 25000 nM, respectively.
In [3], `CCN1C(=O)N(CC(COc2ccc(-c3ccc(C#N)cc3)cc2)N(O)C=O)C(=O)C1(C)C` (stereo unspecified) displayed an AUC of 12.3 uM hr l-1. Moreover, in data set [4], the half-life was 1.8 h. The IC50 on Interstitial collagenase stood at 2400 nM; at Stromelysin-1 it was 27 nM; in data set [6], 12000 nM.
As for `CC1(C)NC(=O)N(CC(COc2ccc(-c3ccc(C#N)cc3)cc2)N(O)C=O)C1=O` (stereo unspecified), the bioavailability in data set [2] was found to be 110%; in [7], 85%. Moreover, the figures for the AUC in [3] and in data set [5] were 24 uM hr l-1 and 27.2 uM hr l-1, respectively. In data set [4], the half-life was 7.7 h. Moreover, the IC50 on Interstitial collagenase came to 2100 nM; at Stromelysin-1 it was 24 nM; in data set [6] it was 7800 nM.
As for `N#Cc1ccc(-c2ccc(OCC(CSc3ccccc3)N(O)C=O)cc2)cc1` (stereo unspecified), the half-life is 0.3 h in data set [4] and under 1 h in [1]. The IC50 came out at 4100 nM against Interstitial collagenase and 36 nM against Stromelysin-1.
With `N#Cc1ccc(-c2ccc(OCCC(=O)NO)cc2)cc1`, the IC50 was 3.3 nM on Interstitial collagenase, 0.057 nM against Stromelysin-1 and 32 nM in [6].
The matching figures for `N#Cc1ccc(-c2ccc(OCCN(O)C=O)cc2)cc1`: over 50 nM, 0.062 nM and 400 nM.
Consider `N#Cc1ccc(-c2ccc(OCCNC(=O)NO)cc2)cc1`, for which the IC50 against Interstitial collagenase is over 50 nM; on Stromelysin-1 it was 80 nM; in data set [6], over 100000 nM.
The compound `N#Cc1ccc(-c2ccc(OCC(CN3C(=O)CCC3=O)N(O)C=O)cc2)cc1` (stereo unspecified) showed a half-life in data set [4] of 0.6 h. For the same compound, the IC50 on Interstitial collagenase is over 10000 nM; on Stromelysin-1, 11 nM; in data set [6] it was 5200 nM.
For the compound `Cc1ccc(=O)n(CC(COc2ccc(-c3ccc(C#N)cc3)cc2)N(O)C=O)n1` (stereo unspecified), the half-life in data set [4] was 0.5 h. Besides, the IC50 at Interstitial collagenase was 4200 nM; on Stromelysin-1, 37 nM; in data set [6], 3400 nM.
With `CN1C(=O)N(CCC(COc2ccc(-c3ccc(C#N)cc3)cc2)N(O)C=O)C(=O)C1(C)C` (stereo unspecified), the bioavailability in data set [2] was found to be 6%. For the same compound, the AUC is 8 uM hr l-1 in [3] and 1.8 uM hr l-1 in [8]. The same compound gave a half-life in data set [4] of 0.5 h. Moreover, the IC50 against Interstitial collagenase was over 10000 nM; against Stromelysin-1 it was 17 nM; in data set [6] it was 45000 nM.
For `CC(=O)N(O)CCOc1ccc(-c2ccc(C#N)cc2)cc1`, in data set [6], the IC50 was found to be 5900 nM.
`CC(COc1ccc(-c2ccc(C#N)cc2)cc1)N(O)C=O` (stereo unspecified): the values for the IC50 (against Interstitial collagenase; on Stromelysin-1; in [6]) were over 10000 nM, 620 nM and 76000 nM, respectively. The compound further showed a half-life in data set [9] of 1.6 h. Also, the bioavailability in data set [10] was determined as 33%.
On to `N#Cc1ccc(-c2ccc(OCC(COc3ccccc3)N(O)C=O)cc2)cc1` (stereo unspecified), for which the IC50 was over 10000 nM on Interstitial collagenase and 130 nM on Stromelysin-1. This compound also displayed a half-life in [1] of under 1 h.
Turning to `CN1C(=O)N(CC(COc2ccc(-c3ccc(C#N)cc3)cc2)N(O)C=O)C(=O)C1(C)C` (stereo unspecified), the bioavailability in [2] was 23%. For the same compound, the AUC stood at 15.2 uM hr l-1 in [3] and 11.8 uM hr l-1 in data set [8]. The compound also showed a half-life in [4] of 2.5 h. Further, the IC50 was found to be 9.1 nM against Stromelysin-1 and 58000 nM in data set [6].
In the case of `N#Cc1ccc(-c2ccc(OCC(CN3C(=O)CNC3=O)N(O)C=O)cc2)cc1` (stereo unspecified), in data set [2], the bioavailability came to 100%. In addition, the AUC in data set [3] came to 59.8 uM hr l-1; in data set [5] it was 68 uM hr l-1. In [4], this compound gave a half-life of 7.3 h. In addition, the values for the half-maximal inhibitory concentration (IC50) (on Interstitial collagenase; against Stromelysin-1; in [6]) were 2400 nM, 14 nM and 8200 nM, respectively.
For the compound `N#Cc1ccc(-c2ccc(OCC(c3ccc(F)cc3)N(O)C=O)cc2)cc1` (stereo unspecified), the 50% inhibitory concentration (IC50) is over 10000 nM at Interstitial collagenase and 300 nM on Stromelysin-1. The compound also returned a half-life in [1] of under 1 h.
For the compound `N#Cc1ccc(-c2ccc(OCC(CN3C(=O)c4ccccc4C3=O)N(O)C=O)cc2)cc1` (stereo unspecified), in data set [4], the half-life is 0.3 h. The IC50 against Interstitial collagenase is over 10000 nM; against Stromelysin-1, 21 nM; in data set [6], 37000 nM.
Turning to `N#Cc1ccc(-c2ccc(OCCN(O)C(N)=O)cc2)cc1`, the values for the IC50 (against Interstitial collagenase; against Stromelysin-1; in data set [6]) were over 50 nM, over 100 nM and 35000 nM, respectively.
Turning to `CC(COc1ccc(-c2ccc(C#N)cc2)cc1)C(=O)NO` (stereo unspecified), the IC50 on Interstitial collagenase turned out to be 2500 nM; at Stromelysin-1, 45 nM; in data set [6], 19000 nM. Further, the half-life in [9] is 0.3 h. In addition, the bioavailability in [10] is 7%.
With `CC(C)CC(COc1ccc(-c2ccc(C#N)cc2)cc1)N(O)C=O` (stereo unspecified), the IC50 against Interstitial collagenase was over 10000 nM; against Stromelysin-1, 120 nM. This compound displayed a half-life in data set [1] of under 1 h.

By IC50 is commonly meant the concentration that gives 50% inhibition. The half-life is how long it takes for the measured level to halve.
